Experiments:
[1] = DRUGMATRIX: Calcium Channel Type L, Benzothiazepine radioligand binding (ligand: [3H] Diltiazem); format: cell membranes, Rattus norvegicus, Wistar, Brain, Membrane; settings: Not Active = under 50% inhibition at 10 µM
[2] = target: T1, Estrogen receptor (Homo sapiens, UniProt P03372); settings: sf9; note: in other assays of this panel Not Active means under 50% inhibition at 10 µM
T1 sequence (P03372 whole entry): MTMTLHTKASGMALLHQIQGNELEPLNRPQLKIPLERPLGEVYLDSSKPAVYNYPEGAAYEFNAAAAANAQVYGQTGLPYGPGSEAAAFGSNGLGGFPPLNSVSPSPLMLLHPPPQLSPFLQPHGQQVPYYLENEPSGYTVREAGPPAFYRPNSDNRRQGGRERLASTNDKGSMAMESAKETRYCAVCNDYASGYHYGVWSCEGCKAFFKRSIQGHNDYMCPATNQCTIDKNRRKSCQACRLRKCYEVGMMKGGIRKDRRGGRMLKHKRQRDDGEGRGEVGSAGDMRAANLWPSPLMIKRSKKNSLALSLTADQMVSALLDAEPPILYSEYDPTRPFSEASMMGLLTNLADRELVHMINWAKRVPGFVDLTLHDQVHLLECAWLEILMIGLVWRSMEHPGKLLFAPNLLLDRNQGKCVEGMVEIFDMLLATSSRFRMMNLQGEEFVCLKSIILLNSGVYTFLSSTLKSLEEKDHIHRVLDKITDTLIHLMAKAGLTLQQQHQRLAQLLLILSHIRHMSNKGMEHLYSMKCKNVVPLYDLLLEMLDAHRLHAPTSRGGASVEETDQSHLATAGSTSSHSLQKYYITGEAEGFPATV

[3] = target: Insulin receptor (Rattus norvegicus, UniProt P15127); format: cell membranes, Wistar, Liver, Membrane; note: in other assays of this panel Not Active means under 50% inhibition at 10 µM
Sequence of Insulin receptor (P15127 27-759 limits assumed): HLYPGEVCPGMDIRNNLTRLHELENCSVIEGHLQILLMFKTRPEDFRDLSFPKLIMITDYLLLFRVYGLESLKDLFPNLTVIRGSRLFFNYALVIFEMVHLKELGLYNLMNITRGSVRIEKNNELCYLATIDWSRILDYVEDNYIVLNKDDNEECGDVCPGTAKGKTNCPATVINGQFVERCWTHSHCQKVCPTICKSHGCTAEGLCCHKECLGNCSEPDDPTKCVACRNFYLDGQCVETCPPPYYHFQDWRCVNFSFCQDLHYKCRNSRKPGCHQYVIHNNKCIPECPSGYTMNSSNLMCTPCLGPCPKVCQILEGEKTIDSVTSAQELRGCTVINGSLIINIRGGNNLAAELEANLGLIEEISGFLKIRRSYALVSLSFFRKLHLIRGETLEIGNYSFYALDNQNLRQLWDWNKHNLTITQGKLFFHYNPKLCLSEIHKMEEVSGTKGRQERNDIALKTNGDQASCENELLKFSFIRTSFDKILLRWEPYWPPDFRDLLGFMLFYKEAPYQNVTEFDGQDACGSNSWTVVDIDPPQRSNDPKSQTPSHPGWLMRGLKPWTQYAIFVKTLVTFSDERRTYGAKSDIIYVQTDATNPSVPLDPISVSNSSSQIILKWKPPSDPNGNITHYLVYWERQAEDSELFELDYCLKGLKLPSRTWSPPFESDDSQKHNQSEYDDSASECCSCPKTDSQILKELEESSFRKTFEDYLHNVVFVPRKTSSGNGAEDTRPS
Sequence of Insulin receptor (P15127 764-1383 limits assumed): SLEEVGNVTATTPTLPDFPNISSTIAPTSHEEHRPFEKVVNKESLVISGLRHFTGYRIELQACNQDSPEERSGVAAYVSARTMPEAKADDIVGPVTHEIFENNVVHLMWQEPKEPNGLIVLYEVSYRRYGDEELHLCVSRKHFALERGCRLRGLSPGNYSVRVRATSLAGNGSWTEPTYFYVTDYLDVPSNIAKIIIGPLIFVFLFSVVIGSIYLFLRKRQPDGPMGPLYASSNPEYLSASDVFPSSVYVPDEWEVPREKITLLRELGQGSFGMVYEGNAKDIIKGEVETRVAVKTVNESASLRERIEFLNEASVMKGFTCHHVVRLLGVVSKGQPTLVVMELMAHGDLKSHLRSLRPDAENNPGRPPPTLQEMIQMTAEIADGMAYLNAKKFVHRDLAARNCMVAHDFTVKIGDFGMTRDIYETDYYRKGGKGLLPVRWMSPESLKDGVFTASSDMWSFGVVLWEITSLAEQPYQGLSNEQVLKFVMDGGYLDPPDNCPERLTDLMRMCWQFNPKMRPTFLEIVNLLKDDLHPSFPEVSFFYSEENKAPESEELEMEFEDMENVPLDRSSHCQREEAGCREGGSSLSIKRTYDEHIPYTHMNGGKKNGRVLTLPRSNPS

[4] = target: T2, Cytochrome P450 1A2 (Homo sapiens, UniProt P05177); settings: bti-tn-5b1-4; note: in other assays of this panel Not Active means under 50% inhibition at 10 µM
T2 sequence (P05177 whole entry): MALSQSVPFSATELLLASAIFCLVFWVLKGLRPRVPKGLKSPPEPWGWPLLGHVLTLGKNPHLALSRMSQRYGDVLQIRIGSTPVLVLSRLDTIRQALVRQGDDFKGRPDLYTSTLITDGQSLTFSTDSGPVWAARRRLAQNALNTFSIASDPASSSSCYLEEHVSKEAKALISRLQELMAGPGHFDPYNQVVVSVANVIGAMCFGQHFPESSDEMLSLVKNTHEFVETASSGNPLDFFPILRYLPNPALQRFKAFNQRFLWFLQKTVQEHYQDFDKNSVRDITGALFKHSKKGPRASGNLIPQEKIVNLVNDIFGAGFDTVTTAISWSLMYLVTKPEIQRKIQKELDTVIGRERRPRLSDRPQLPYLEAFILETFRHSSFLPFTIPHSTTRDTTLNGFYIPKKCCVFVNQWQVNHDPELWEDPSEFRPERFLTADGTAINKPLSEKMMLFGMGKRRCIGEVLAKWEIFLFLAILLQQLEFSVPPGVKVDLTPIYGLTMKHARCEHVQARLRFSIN

[5] = target: T3, Muscarinic acetylcholine receptor M4 (Homo sapiens, UniProt P08173); format: cell membranes, CHO-K1, Membrane; note: in other assays of this panel Not Active means under 50% inhibition at 10 µM
T3 sequence (P08173 whole entry): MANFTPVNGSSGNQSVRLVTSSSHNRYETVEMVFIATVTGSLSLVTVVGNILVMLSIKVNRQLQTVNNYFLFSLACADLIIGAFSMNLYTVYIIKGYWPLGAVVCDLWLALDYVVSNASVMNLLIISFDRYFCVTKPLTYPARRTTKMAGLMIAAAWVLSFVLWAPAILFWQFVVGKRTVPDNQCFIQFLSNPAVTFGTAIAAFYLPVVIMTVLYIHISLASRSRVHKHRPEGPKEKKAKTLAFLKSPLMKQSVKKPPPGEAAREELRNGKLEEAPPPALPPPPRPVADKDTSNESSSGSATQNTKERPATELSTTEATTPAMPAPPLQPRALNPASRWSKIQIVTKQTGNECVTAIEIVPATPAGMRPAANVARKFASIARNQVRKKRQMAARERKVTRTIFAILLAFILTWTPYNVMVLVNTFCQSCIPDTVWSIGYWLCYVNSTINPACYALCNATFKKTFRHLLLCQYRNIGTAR

[6] = DRUGMATRIX: Phosphodiesterase PDE4 enzyme inhibition (substrate: [3H]cAMP + cAMP); settings: u-937; Not Active = under 50% inhibition at 10 µM

Compound | IC50 [1] | Ki [1] | IC50 [2] | IC50 [3] | IC50 [4] | Ki [4] | IC50 ([5]; cho-k1) | IC50 [6] | Ki [6] | IC50 ([5]; read-out: IC50) [nM] | Ki ([5]; read-out: Ki) [nM]
Cc1cc(=O)n(-c2ccccc2)n1C [ANTIPYRINE] | Not Active | Not Active | Not Active | Not Active | Not Active | Not Active | Not Active | Not Active | Not Active | – | –
CN1C(=O)COc2c(C(=O)NC3CN4CCC3CC4)cc(Cl)cc21 (stereo not given) [AZASETRON] | Not Active | Not Active | Not Active | Not Active | Not Active | Not Active | Not Active | Not Active | Not Active | – | –
C[C@H]1C[C@H]2[C@@H]3CCC4=CC(=O)C=C[C@]4(C)[C@@]3(Cl)[C@@H](O)C[C@]2(C)[C@@]1(O)C(=O)CO [BECLOMETHASONE] | Not Active | Not Active | Not Active | Not Active | Not Active | Not Active | Not Active | Not Active | Not Active | – | –
Nc1c(CC(=O)O)cccc1C(=O)c1ccc(Br)cc1 [BROMFENAC] | Not Active | Not Active | Not Active | Not Active | Not Active | Not Active | Not Active | Not Active | Not Active | – | –
CCCCN1CCCCC1C(=O)Nc1c(C)cccc1C.Cl (stereo not given) [BUPIVACAINE HYDROCHLORIDE] | Not Active | Not Active | Not Active | Not Active | Not Active | Not Active | Not Active | Not Active | Not Active | – | –
C[C@@]12C(=O)OC(=O)[C@]1(C)[C@H]1CC[C@@H]2O1 [CANTHARIDIN] | Not Active | Not Active | Not Active | Not Active | Not Active | Not Active | Not Active | Not Active | Not Active | – | –
C=C1CC[C@H](O)C/C1=C/C=C1\CCC[C@]2(C)[C@@H]([C@H](C)CCCC(C)C)CC[C@@H]12 [CHOLECALCIFEROL] | Not Active | Not Active | Not Active | Not Active | Not Active | Not Active | Not Active | Not Active | Not Active | – | –
C[N+](C)(C)CCO.[Cl-] [CHOLINE CHLORIDE] | Not Active | Not Active | Not Active | Not Active | Not Active | Not Active | Not Active | Not Active | Not Active | – | –
CC(=O)OCC(=O)[C@@]1(O)CC[C@H]2[C@@H]3CCC4=CC(=O)CC[C@]4(C)[C@H]3C(=O)C[C@@]21C [CORTISONE ACETATE] | Not Active | Not Active | Not Active | Not Active | Not Active | Not Active | Not Active | Not Active | Not Active | – | –
O=c1ccc2ccccc2o1 [COUMARIN] | Not Active | Not Active | Not Active | Not Active | Not Active | Not Active | Not Active | Not Active | Not Active | – | –
CN(C)/N=N/c1[nH]cnc1C(N)=O [DACARBAZINE] | Not Active | Not Active | Not Active | Not Active | Not Active | Not Active | Not Active | Not Active | Not Active | – | –
COP(=O)(OC)OC=C(Cl)Cl [DICHLORVOS] | Not Active | Not Active | Not Active | Not Active | Not Active | Not Active | Not Active | Not Active | Not Active | – | –
O=C(O)Cc1ccccc1Nc1c(Cl)cccc1Cl [DICLOFENAC] | Not Active | Not Active | Not Active | Not Active | Not Active | Not Active | Not Active | Not Active | Not Active | – | –
C[C@H]1O[C@@H](O[C@H]2[C@@H](O)C[C@H](O[C@H]3[C@@H](O)C[C@H](O[C@H]4CC[C@@]5(C)[C@H](CC[C@@H]6[C@@H]5CC[C@]5(C)[C@@H](C7=CC(=O)OC7)CC[C@]65O)C4)O[C@@H]3C)O[C@@H]2C)C[C@H](O)[C@@H]1O [DIGITOXIN] | Not Active | Not Active | Not Active | Not Active | Not Active | Not Active | Not Active | Not Active | Not Active | – | –
COc1cccc2c1C(=O)c1c(O)c3c(c(O)c1C2=O)C[C@@](O)(C(=O)CO)C[C@@H]3O[C@H]1C[C@H](N)[C@H](O)[C@H](C)O1 [DOXORUBICIN] | Not Active | Not Active | Not Active | Not Active | Not Active | Not Active | Not Active | Not Active | Not Active | – | –
COc1cccc2c1C(=O)c1c(O)c3c(c(O)c1C2=O)C[C@@](O)(C(=O)CO)C[C@@H]3O[C@H]1C[C@H](N)[C@@H](O)[C@H](C)O1 [EPIRUBICIN] | Not Active | Not Active | Not Active | Not Active | Not Active | Not Active | Not Active | Not Active | Not Active | – | –
CC1(C)O[C@@H]2C[C@H]3[C@@H]4C[C@H](F)C5=CC(=O)C=C[C@]5(C)[C@H]4[C@@H](O)C[C@]3(C)[C@]2(C(=O)CO)O1 [FLUNISOLIDE] | Not Active | Not Active | Not Active | Not Active | Not Active | Not Active | Not Active | Not Active | Not Active | – | –
CC1(C)O[C@@H]2C[C@H]3[C@@H]4C[C@H](F)C5=CC(=O)C=C[C@]5(C)[C@@]4(F)[C@@H](O)C[C@]3(C)[C@]2(C(=O)CO)O1 [FLUOCINOLONE ACETONIDE] | Not Active | Not Active | Not Active | Not Active | Not Active | Not Active | Not Active | Not Active | Not Active | – | –
CC1(C)O[C@@H]2C[C@H]3[C@@H]4C[C@H](F)C5=CC(=O)CC[C@]5(C)[C@H]4[C@@H](O)C[C@]3(C)[C@]2(C(=O)CO)O1 [FLURANDRENOLIDE] | Not Active | Not Active | Not Active | Not Active | Not Active | Not Active | Not Active | Not Active | Not Active | – | –
CN(C)c1ccc(C(=C2C=CC(=[N+](C)C)C=C2)c2ccc(N(C)C)cc2)cc1.[Cl-] [GENTIAN VIOLET] | Not Active | Not Active | Not Active | Not Active | Not Active | Not Active | – | Not Active | Not Active | 1010 | 140
Cc1ccc(S(=O)(=O)NC(=O)NN2CC3CCCC3C2)cc1 (stereo not given) [GLICLAZIDE] | Not Active | Not Active | Not Active | Not Active | Not Active | Not Active | Not Active | Not Active | Not Active | – | –

Reference: ChEMBL document CHEMBL1909046, “DrugMatrix in vitro pharmacology data”
